Structures can show the parent of a compound that is named as a salt.
Test system: HCT116
Details: 72 h
Procedure, shortened: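 Four-parameter Hill fits gave IC50 and maximal efficacy. The data were CellTiter-Glo luminescence readings in HCT116 cells, normalized so that vehicle was 0% and positive control was -100%, with pattern correction afterwards.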

Row | SMILES | IC50 cell viability (ICRF193 0 nM) | IC50 cell viability (ICRF193 200 nM)
1 | O=c1oc2c(O)c(O)cc3c(=O)oc4c(O)c(O)cc1c4c23 [Ellagic acid] | > 45.8 µM | > 45.8 µM
2 | COc1ccc(CN(C(=O)[C@@H](N)Cc2c(C)cc(C(N)=O)cc2C)[C@@H](C)c2ncc(-c3ccccc3)[nH]2)cc1C(=O)O [Eluxadoline] | > 45.8 µM | > 45.8 µM
3 | CCC(CC)(CNC(=O)CCCO)c1cccc(OC)c1 [Embutramide] | > 45.8 µM | > 45.8 µM
4 | CCOCCn1c(N2CCCN(C)CC2)nc2ccccc21 [Emedastine difumarate] | > 45.8 µM | > 45.8 µM
5 | CCOC(=O)c1ccc(OCCN2C[C@H](O)[C@@H](O)[C@H](O)[C@H]2CO)cc1 [Emiglitate] | > 45.8 µM | > 45.8 µM
6 | CC(C)C[C@H]1C(=O)O[C@H](Cc2ccc(N3CCOCC3)cc2)C(=O)N(C)[C@@H](CC(C)C)C(=O)O[C@H](C)C(=O)N(C)[C@@H](CC(C)C)C(=O)O[C@H](Cc2ccc(N3CCOCC3)cc2)C(=O)N(C)[C@@H](CC(C)C)C(=O)O[C@H](C)C(=O)N1C [Emodepside] | > 45.8 µM | > 45.8 µM
7 | CCOc1c(N2CCOCC2)cnn(C)c1=O [Emorfazone] | > 45.8 µM | > 45.8 µM
8 | Nc1nc(=O)n([C@@H]2CS[C@H](CO)O2)cc1F [Emtricitabine] | > 45.8 µM | > 45.8 µM
9 | C[C@H](N[C@@H](CCc1ccccc1)C(=O)O)C(=O)N1CCC[C@H]1C(=O)O [Enalapril acid] | > 45.8 µM | > 45.8 µM
10 | CCOC(=O)[C@H](CCc1ccccc1)N[C@@H](C)C(=O)N1CCC[C@H]1C(=O)O [Enalapril maleate] | > 45.8 µM | > 45.8 µM
11 | CC(C)(O)CNc1nc(Nc2ccnc(C(F)(F)F)c2)nc(-c2cccc(C(F)(F)F)n2)n1 [Enasidenib] | > 45.8 µM | > 45.8 µM
12 | COc1ccc(C(=O)Nc2ccccc2CCC2CCCCN2C)cc1 (stereo not given) [Encainide hydrochloride] | > 45.8 µM | > 45.8 µM
13 | FC(F)OC(F)(F)C(F)Cl (stereo not given) [Enflurane] | > 45.8 µM | > 45.8 µM
14 | CCCCCCCCCCCCCCCCCCCCCC(=O)Nc1ccn([C@@H]2O[C@H](CO)[C@@H](O)[C@@H]2O)c(=O)n1 [Enocitabine] | > 45.8 µM | > 45.8 µM
15 | CCn1cc(C(=O)O)c(=O)c2cc(F)c(N3CCNCC3)nc21 [Enoxacin] | > 45.8 µM | > 45.8 µM
16 | CSc1ccc(C(=O)c2[nH]c(=O)[nH]c2C)cc1 [Enoximone] | > 45.8 µM | > 45.8 µM
17 | CCN1CCN(c2cc3c(cc2F)c(=O)c(C(=O)O)cn3C2CC2)CC1 [Enrofloxacin] | > 45.8 µM | > 45.8 µM
18 | O=S(=O)(O)c1ccc2[nH]c(-c3ccccc3)nc2c1 [Ensulizole] | > 45.8 µM | > 45.8 µM
19 | CCN(CC)C(=O)/C(C#N)=C/c1cc(O)c(O)c([N+](=O)[O-])c1 [Entacapone] | > 45.8 µM | > 45.8 µM
20 | C=C1[C@H](CO)[C@@H](O)C[C@@H]1n1cnc2c(=O)[nH]c(N)nc21 [Entecavir (monohydrate)] | > 45.8 µM | > 45.8 µM

Row | SMILES | IC50 cell viability (ICRF193 0 nM) | IC50 cell viability (ICRF193 200 nM)
21 | Cn1cc(C2=C(c3cn(C4CCN(Cc5ccccn5)CC4)c4ccccc34)C(=O)NC2=O)c2ccccc21 [Enzastaurin] | > 45.8 µM | > 45.8 µM
22 | CC(/C=C1\SC(=S)N(CC(=O)O)C1=O)=C\c1ccccc1 [Epalrestat] | > 45.8 µM | > 45.8 µM
23 | NC1=NCC2c3ccccc3Cc3ccccc3N12 (stereo not given) [Epinastine hydrochloride] | > 45.8 µM | > 45.8 µM
24 | CNC[C@H](O)c1ccc(O)c(O)c1 [Epinephrine] | > 45.8 µM | > 45.8 µM
25 | COc1cc(C)nc(-n2nc(C)cc2OC)n1 [Epirizole] | > 45.8 µM | > 45.8 µM
26 | C[C@]12C[C@H]3S[C@H]3C[C@@H]1CC[C@@H]1[C@@H]2CC[C@]2(C)[C@@H](O)CC[C@@H]12 [Epitiostanol] | > 45.8 µM | > 45.8 µM
27 | COC(=O)[C@@H]1CC2=CC(=O)CC[C@]2(C)[C@@]23O[C@@H]2C[C@@]2(C)[C@@H](CC[C@@]24CCC(=O)O4)[C@H]13 [Eplerenone] | > 45.8 µM | > 45.8 µM
28 | CCCCC[C@H](O)/C=C/[C@@H]1[C@H]2C/C(=C/CCCC(=O)O)O[C@H]2C[C@H]1O [Epoprostenol sodium] | > 45.8 µM | > 45.8 µM
29 | CCOC(CN1CCN(CC(C)C(=O)c2ccccc2)CC1)c1ccccc1 (stereo not given) [Eprazinone dihydrochloride] | > 45.8 µM | > 45.8 µM
30 | CC(C)(C)NC(=O)[C@H]1CC[C@H]2[C@@H]3CC=C4C=C(C(=O)O)CC[C@]4(C)[C@H]3CC[C@]12C [Epristeride] | > 45.8 µM | > 45.8 µM
31 | CCCCc1ncc(/C=C(\Cc2cccs2)C(=O)O)n1Cc1ccc(C(=O)O)cc1 [Eprosartan mesylate] | > 45.8 µM | > 45.8 µM
32 | O=C(C1CCCCC1)N1CC(=O)N2CCCc3ccccc3C2C1 (stereo not given) [Epsiprantel] | > 45.8 µM | > 45.8 µM
33 | N=C(N)NCCCC[C@@H]1NC(=O)CCSSC[C@@H](C(N)=O)NC(=O)[C@@H]2CCCN2C(=O)[C@H](Cc2c[nH]c3ccccc23)NC(=O)[C@H](CC(=O)O)NC(=O)CNC1=O [Eptifibatide] | > 45.8 µM | > 45.8 µM
34 | O=C(O)CSCC(=O)NC1CCSC1=O (stereo not given) [Erdosteine] | > 45.8 µM | > 45.8 µM
35 | C[C@@H](CO)NC(=O)[C@@H]1C=C2c3cccc4[nH]cc(c34)C[C@H]2N(C)C1 [Ergobasine] | > 45.8 µM | > 45.8 µM
36 | C[C@@H](O)[C@H]1C(=O)N2C(C(=O)O)=C(S[C@@H]3CN[C@H](C(=O)Nc4cccc(C(=O)O)c4)C3)[C@H](C)[C@H]12 [Ertapenem] | > 45.8 µM | > 45.8 µM
37 | CCC(=O)O[C@H]1[C@H](O[C@@H]2[C@@H](C)[C@H](O[C@H]3C[C@@](C)(OC)[C@@H](O)[C@H](C)O3)[C@@H](C)C(=O)O[C@H](CC)[C@@](C)(O)[C@H](O)[C@@H](C)C(=O)[C@H](C)C[C@@]2(C)O)O[C@H](C)C[C@@H]1N(C)C [Erythromycin propionate] | > 45.8 µM | > 45.8 µM
38 | O=C1OC2(c3ccccc31)c1cc(I)c(O)c(I)c1Oc1c2cc(I)c(O)c1I [Erythrosin B] | > 45.8 µM | > 45.8 µM
39 | O=c1ccc2cc(O[C@@H]3O[C@H](CO)[C@@H](O)[C@H](O)[C@H]3O)c(O)cc2o1 [Esculin hydrate] | > 45.8 µM | > 45.8 µM
40 | CC(=O)O[C@H]1Cc2ccccc2N(C(N)=O)c2ccccc21 [Eslicarbazepine (acetate)] | > 45.8 µM | > 45.8 µM

Row | SMILES | IC50 cell viability (ICRF193 0 nM) | IC50 cell viability (ICRF193 200 nM)
41 | COC(=O)CCc1ccc(OCC(O)CNC(C)C)cc1 (stereo not given) [Esmolol hydrochloride] | > 45.8 µM | > 45.8 µM
42 | CC(=O)SCC(CC(=O)c1ccc(C)cc1)C(=O)O (stereo not given) [Esonarimod] | > 45.8 µM | > 45.8 µM
43 | C[C@]12CC[C@@H]3c4ccc(O)cc4CC[C@H]3[C@@H]1CC[C@@H]2OC(=O)CCC1CCCC1 [Estradiol cypionate] | > 45.8 µM | > 45.8 µM
44 | CCCCCCC(=O)O[C@H]1CC[C@H]2[C@@H]3CCc4cc(O)ccc4[C@H]3CC[C@]12C [Estradiol enanthate] | > 45.8 µM | > 45.8 µM
45 | C[C@]12CC[C@@H]3c4ccc(OC(=O)N(CCCl)CCCl)cc4CC[C@H]3[C@@H]1CC[C@@H]2O [Estramustine] | > 45.8 µM | > 45.8 µM
46 | CC(=O)O[C@@H]1C[C@H]2[C@@H]3CCc4cc(OC(=O)c5ccccc5)ccc4[C@H]3CC[C@]2(C)[C@H]1OC(C)=O [Estriol benzoate diacetate] | > 45.8 µM | > 45.8 µM
47 | CCC(=O)Oc1ccc2c(c1)CC[C@@H]1[C@@H]2CC[C@@]2(C)[C@H]1C[C@@H](OC(=O)CC)[C@@H]2OC(=O)CC [Estriol tripropionate] | > 45.8 µM | > 45.8 µM
48 | C[C@]12CC[C@@H]3c4ccc(O)cc4CC[C@H]3[C@@H]1C[C@@H](O)[C@@H]2O [Estriol] | > 45.8 µM | > 45.8 µM
49 | C[C@]12CC[C@@H]3c4ccc(O)cc4CC[C@H]3[C@@H]1CCC2=O [Estrone] | > 45.8 µM | > 45.8 µM
50 | CN1CCN(C(=O)O[C@H]2c3nccnc3C(=O)N2c2ccc(Cl)cn2)CC1 [Eszopiclone] | > 45.8 µM | > 45.8 µM
51 | CCN(C)C(C)C(O)c1ccccc1 (stereo not given) [Etafedrine hydrochloride] | > 45.8 µM | > 45.8 µM
52 | CCN(CC)CCOc1ccccc1C(=O)CCc1ccccc1 [Etafenone] | > 45.8 µM | > 45.8 µM
53 | C=C(CC)C(=O)c1ccc(OCC(=O)O)c(Cl)c1Cl [Ethacrynic acid] | > 45.8 µM | > 45.8 µM
54 | CC[C@@H](CO)NCCN[C@@H](CC)CO [Ethambutol dihydrochloride] | > 45.8 µM | > 45.8 µM
55 | C#CC(O)(/C=C/Cl)CC (stereo not given) [Ethchlorvynol] | > 45.8 µM | > 45.8 µM
56 | CCC1Nc2cc(Cl)c(S(N)(=O)=O)cc2S(=O)(=O)N1 (stereo not given) [Ethiazide] | > 45.8 µM | > 45.8 µM
57 | CCc1cc(C(N)=S)ccn1 [Ethionamide] | > 45.8 µM | > 45.8 µM
58 | CCOC(=O)C1(c2ccccc2)CCCN(C)CC1 (stereo not given) [Ethoheptazine hydrochloride] | > 45.8 µM | > 45.8 µM
59 | CCN(CC)C(C)CN1c2ccccc2Sc2ccccc21 (stereo not given) [Ethopropazine hydrochloride] | > 45.8 µM | > 45.8 µM
60 | CCC1(C)CC(=O)NC1=O (stereo not given) [Ethosuximide] | > 45.8 µM | > 45.8 µM

Reference: the supplement of paper PMC12137928
